Measured values taken from patent US20250230138A1, “COMPOUNDS HAVING A T-STRUCTURE FORMED BY AT LEAST FOUR CYCLES FOR USE IN THE TREATMENT OF CANCER AND OTHER INDICATIONS” (TheRas, Inc., priority 2022, published 2025).
Like-named read-outs stand apart in the source and are kept apart here.

What was measured:
[1] = target: Cys242 in human PIK3CA (157-299) (Homo sapiens (Human), UniProt P42336); assay: Covalent modification assay using MALDI-TOF MS; assay type: biochemical; conditions: 4 h reaction time point
Sequence of Cys242 in human PIK3CA (157-299) (P42336 157-299): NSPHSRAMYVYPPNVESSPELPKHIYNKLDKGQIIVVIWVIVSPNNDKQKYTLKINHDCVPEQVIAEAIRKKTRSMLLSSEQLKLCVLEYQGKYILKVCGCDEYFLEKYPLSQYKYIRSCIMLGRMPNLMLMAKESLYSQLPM
Method: Matrix-Assisted Laser Desorption Ionization-Time of Flight Mass Spectrometry (MALDI-TOF MS) analysis of covalent modification of Cys242 in human PIK3CA (157-299) was performed.
Reaction: 3.33 μM or 1 μM of PIK3CA (157-299) protein (produced in-house by Protein Expression Laboratory, FNLCR/Leidos Biomed) in 20 mM HEPES buffer containing 150 mM NaCl, 2 mM MgCl2, pH 7.3 was prepared freshly before assay. Twelve-μL aliquots of protein were dispensed onto low volume 384-well plate, then 470 nL DMSO and 30 nL of tested compounds from 10 mM DMSO stocks were added to appropriate wells using ECHO 555 acoustic liquid handler (Labcyte Inc.). For each reaction/assay, three blanks were prepared by mixing 12 μL of protein solution with 500 nL DMSO. The wells content was carefully mixed by aspiration, and then the plate was sealed by an adhesive cover, centrifuged at 931 g for 1 minute, and kept in the dark at room temperature until 15 min, 30 min, 2 h, or 4 h collections.
Targetpretreatment: Before each assay MALDI target (Bruker MPT 384 ground steel BC) was pre-treated by pipetting on each spot 0.75 μL of saturated sinapinic acid in acetonitrile (ACN).
Sample preparation: At collection time point, 2 μL of reaction mixtures were pipetted out into […] MALDI matrix solution (saturated solution of sinapinic acid in 1:1 ACN:water solution containing 0.15% trifluoroacetic acid (TFA)) deposited on 384 well polypropylene plate. The resulting solution was mixed by aspiration, centrifuged at 931 g for 1 minute, then 1.5 μL aliquots were dispensed on pre-treated MALDI target using Beckman Coulter Biomek FX^P 96/384-Span-8 Laboratory Automation Workstation. Finally, the MALDI target was dried under a mild vacuum to produce spots with a fine crystalline structure.
Measurements: MALDI-TOF measurements were performed on Bruker Daltonics rapifleX Tissuetyper TOF-TOF mass spectrometer using linear mode and mass ranging from 16.0 to 19.6 kDa. Detector gain was set to 0.64×(459 V), sample rate to 5 GS/s, real-time smoothing to medium (175 MHz), laser smart beam pattern was set to “Custom” single smartbeam beam scan with a scan range of 40 μm on both X and Y axis, and the laser frequency was 10000 Hz. Spectra were automatically collected using the custom AutoXecute method. Laser power was auto adjusted using fuzzy control. The peak selection range was set to be between 16.0 and 18.5 kDa. Peak evaluation uses a half-width parameter set to be smaller than 40 Da for processed spectrograms (centroid peak detection; smoothed by SavitzkyGolay algorithm using 7 m/z width and 2 cycles; baseline was subtracted using a median algorithm with flatness 1 and median level 0). Fuzzy control used Proteins/Oligonucleotides protocol with minimum half-width 1/10 times above threshold. Up to 40000 satisfactory shots were collected in 10000 short steps. Dynamic termination was implemented to finish data collection when the peak signal/noise ratio was reaching a value of 1000.
Spectra processing: Spectra were smoothed by SavitzkyGolay algorithm using 7 m/z width and three cycles. Centroid peak detection algorithm was used with signal to noise threshold set to 6, relative intensity threshold 3%, peak width 10 m/z, and median baseline subtraction using flatness of 1 and the median level of 0.1. Peak intensity and area under the peak were evaluated and recorded for all peaks between 16.0 and 19.5 kDa.
Calculation of percent modification: Percent modification was calculated as a ratio of peak height for protein modified by compound to the sum of the peak height of remaining protein plus peak height for protein modified by a compound. If multiple modifications were observed each was calculated as a ratio of peak height for given modification versus the sum of peak heights for all observed protein species.

pAKT in BT474 cells = assay: Cell-based pAKT HTRF assay in BT474 cells; conditions: BT474 cells, 4 hr incubation, read-out: pAKT inhibition IC50 in BT474 cells
Method: On Day 1, cells were seeded into 96-well plates at 2.5×10^4 cells/well in complete growth media (DMEM, 10% FBS). On Day 2, cells were treated with compounds at 0.25% DMSO. The source plate was created with compounds diluted in media at 5-fold the final assay concentration. The compounds are run in a 9-point concentration curve starting at 3 μM, with a 3-fold dilution between concentrations. 20 μL was transferred onto the cell plates (final volume in wells was 100 μL). Plates were harvested after 4 hr incubation by aspirating media and adding kit-supplied 1× supplemented lysis buffer to all wells (75 μL per well). Plates were then placed on a plate shaker and incubated at 850 rpm for an additional 30 min. The antibody mixture solution was prepared by diluting aliquoted d2 and Eu Cryptate antibodies 1:20 in kit supplied detection buffer, then mixed the diluted antibodies solutions (1:1 v:v). 4 μL of this solution was then added to a 384-well detection plate (Perkin Elmer; 6008230). Samples were homogenized by pipetting up and down and then transferred (16 μL of cell lysates) from the 96-well cell culture plate to two wells of the HTRF 384-well detection plate containing the antibody solution. Plates were centrifuged (524 g for 1 min) and allowed to incubate between 4 and 24 h at room temperature. The maximum signal is reached after 4 h incubation time and remains stable over a period of 24 hours. Therefore, readings can be made between 4 and 24 h of incubation. Plates were centrifuged again (524 g for 1 m), and analyzed on the EnVision plate reader using the following settings: Excitation 320 nm, Bandwidth […]; Emission 615 nm, Bandwidth […], Gain 10000, Flashes 100, Lag 60 μs.

[2] = 1 μM protein target, 1:5 protein to compound ratio (compounds 853-1279)
[3] = 3.33 μM protein target, 1:7.5 protein to compound ratio (compounds 1-852)

Row | Compound | % of modification [1, 2] | IC50 (pAKT in BT474 cells; Compounds 1000-1279) | % of modification [1, 3] | IC50 (pAKT in BT474 cells; Compounds 10-999)
1 | C=CC(=O)N1CCn2nc(-c3nc(N4CC(CC(=O)N(C)C)C4)c4ccsc4c3-c3c(F)cc(F)cc3OCCOC)cc2C1C (stereo not drawn) [Compound 1039] | A (percent of modification of PIK3CA protein ≥75%) | > 1000 nM | – | –
2 | C=CC(=O)N1Cc2cc(-c3nc(-c4cn(C)cn4)c4ccsc4c3-c3c(F)cc(F)cc3OCCOC)nn2[C@@H](C)C1 [Compound 509] | – | – | A (percent of modification of PIK3CA protein ≥75%) | < 100 nM
3 | C=CC(=O)N1CC(n2cc(-c3nc(C4=CCN(C(C)=O)CC4)c4ccsc4c3-c3ccc(F)cc3OC)cn2)C1 [Compound 298] | – | – | A (percent of modification of PIK3CA protein ≥75%) | 100 to 1000 nM
4 | C=CC(=O)N1CC(n2cc(-c3nc(-c4ccc5c(c4)CS(=O)(=O)C5)c4ccsc4c3-c3ccc(F)cc3OC)cn2)C1 [Compound 95] | – | – | A (percent of modification of PIK3CA protein ≥75%) | < 100 nM
5 | C=C(F)C(=O)N1CCn2nc(-c3nc(-c4ccc5c(c4)CNC5=O)c4ccsc4c3-c3c(F)cc(F)cc3OC(C)C)nc2C1 [Compound 315] | – | – | A (percent of modification of PIK3CA protein ≥75%) | < 100 nM
6 | C=CC(=O)N1CCn2nc(-c3nc(-c4cnn(C5CN(C)C5)c4)c4ccsc4c3-c3c(F)cc(F)cc3OCC(C)O)cc2C1C (stereo not drawn) [Compound 992] | A (percent of modification of PIK3CA protein ≥75%) | – | – | < 100 nM
7 | C=CC(=O)N1Cc2cc(-c3nc(-c4cnn(C)c4)c4ccsc4c3-c3c(F)cc(F)cc3OC(C)C)nn2C[C@H]1C [Compound 457, 1-((R)-2-((S)-7-(2,4-difluoro-6-isopropoxyphenyl)-4-(1-methyl-1H-pyrazol-4-yl)thieno[3,2-c]pyridin-6-yl)-6-methyl-6,7-dihydropyrazolo[1,5-a]pyrazin-5(4H)-yl)prop-2-en-1-one] | – | – | A (percent of modification of PIK3CA protein ≥75%) | < 100 nM
8 | C=CC(=O)N1CCc2nc(-c3nc(-c4ccc5c(c4)CNC5=O)c4ccsc4c3-c3c(F)cc(F)cc3OC(C)C)sc2C1 (single isomer, unassigned) [Compound 413] | – | – | D (percent of modification <25%) | 1000 to 3000 nM
9 | C=CC(=O)N1Cc2cc(-c3nc(-c4ccc5cn(C)nc5c4)c4ccsc4c3-c3c(F)cc(F)cc3OCCOC)nn2C[C@H]1C [Compound 737] | – | – | A (percent of modification of PIK3CA protein ≥75%) | < 100 nM
10 | C=CC(=O)N1CCn2nc(-c3nc(-c4ccc5c(cnn5C)c4)c4ccsc4c3-c3c(F)cc(F)cc3OC[C@@H](C)O)cc2[C@@H]1C [Compound 671] | – | – | A (percent of modification of PIK3CA protein ≥75%) | < 100 nM
11 | C=CC(=O)N1CCn2nc(-c3nc(-c4cnnc(C)c4)c4ccsc4c3-c3c(F)cc(F)cc3OCC(C)O)cc2C1C (stereo not drawn) [Compound 823] | – | – | A (percent of modification of PIK3CA protein ≥75%) | < 100 nM
12 | C=CC(=O)N1CCc2ncc(-c3nc(-c4ccn(C)n4)c4ccsc4c3-c3c(F)cc(F)cc3OC(C)C)cc2C1 [Compound 404] | – | – | A (percent of modification of PIK3CA protein ≥75%) | < 100 nM
13 | C=CC(=O)N1CCn2nc(-c3nc(-c4ccc(OC5CN(C)C5)cc4)c4ccsc4c3-c3c(F)cc(F)cc3OCCOC)cc2C1C (stereo not drawn) [Compound 1094] | A (percent of modification of PIK3CA protein ≥75%) | < 100 nM | – | –
14 | C=CC(=O)N1CCc2ncc(-c3nc(-c4cnn(CC(C)(C)O)c4)c4ccsc4c3-c3c(F)cc(F)cc3OC(C)C)cc2C1 [Compound 345] | – | – | A (percent of modification of PIK3CA protein ≥75%) | < 100 nM
15 | C=CC(=O)N1CCn2nc(-c3nc(-c4ccc5ncn(C)c5c4)c4ccsc4c3-c3c(F)cc(F)cc3OCCOC)cc2[C@@H]1C [Compound 702] | – | – | A (percent of modification of PIK3CA protein ≥75%) | < 100 nM
16 | C=CC(=O)N1CCc2nc(-c3nc(-c4ccc5c(c4)CCNCC5)c4ccsc4c3-c3ccc(F)cc3OCCOC)sc2C1 [Compound 121] | – | – | A (percent of modification of PIK3CA protein ≥75%) | < 100 nM
17 | C=CC(=O)N1Cc2cc(-c3nc(-c4ccc5ncc(=O)n(C)c5c4)c4ccsc4c3-c3c(F)cc(F)cc3OCCOC)nn2CC1C (stereo not drawn) [Compound 856] | A (percent of modification of PIK3CA protein ≥75%) | – | – | < 100 nM
18 | C=CC(=O)N1CCc2nc(-c3nc(-c4ccc5c(c4)C(O)CC5)c4ccsc4c3-c3c(F)cc(F)cc3OCCOC)sc2C1 (stereo not drawn) [Compound 416] | – | – | A (percent of modification of PIK3CA protein ≥75%) | < 100 nM
19 | C=CC(=O)N1Cc2cc(-c3nc(-c4ccc5c(cnn5C)c4)c4ccsc4c3-c3c(F)cc(F)cc3OCCOC)nn2[C@@H](C)C1 [Compound 739] | – | – | A (percent of modification of PIK3CA protein ≥75%) | < 100 nM
20 | C=CC(=O)N1CCn2nc(-c3nc(-c4ccc(C(=O)N(C)C)cc4)c4ccsc4c3-c3c(F)cc(F)cc3OCCOC)cc2C1C (stereo not drawn) [Compound 1100] | A (percent of modification of PIK3CA protein ≥75%) | < 100 nM | – | –
21 | C=CC(=O)N1CCn2nc(-c3nc(-c4ccc5c(c4)CNC5=O)c4ccsc4c3-c3c(F)cc(F)cc3OCCOC)cc2[C@H]1C [Compound 617, 5-((S)-6-((R)-5-acryloyl-4-methyl-4,5,6,7-tetrahydropyrazolo[1,5-a]pyrazin-2-yl)-7-(2,4-difluoro-6-(2-methoxyethoxy)phenyl)thieno[3,2-c]pyridin-4-yl)isoindolin-1-one] | – | – | A (percent of modification of PIK3CA protein ≥75%) | < 100 nM
22 | C=CC(=O)N1CCn2nc(-c3nc(-c4cnc5c(c4)CN(C(C)C)CC5)c4ccsc4c3-c3c(F)cc(F)cc3OC)cc2[C@H]1C (single isomer, unassigned) [Compound 1148] | A (percent of modification of PIK3CA protein ≥75%) | < 100 nM | – | –
23 | C=CC(=O)N1CCn2nc(-c3nc(-c4cnn(C)c4)c4ccsc4c3-c3ccc(Cl)cc3F)cc2C1 [Compound 284] | – | – | A (percent of modification of PIK3CA protein ≥75%) | 100 to 1000 nM
24 | C=CC(=O)N1CCc2ncc(-c3nc(-c4cnc5c(c4)CN(C)CC5(F)F)c4ccsc4c3-c3c(F)cc(F)cc3OCCOC)cc2C1 [Compound 1279] | A (percent of modification of PIK3CA protein ≥75%) | < 100 nM | – | –
